# Laboratory results: EP3046573B1, “AMYLIN ANALOGUES” (Zealand Pharma A/S, priority 2013, dated 2015)
# Numbered stars: 1 amine (or outer) side, 2 acyl side, 3 side chain; on linkers, the order of the positions; unused ones are H or OH. Bridge positions count the residues as written; N and C are the ends. Square brackets hold non-standard residues; d marks the D form. Peptide text beside a SMILES is read from it. * marks the point of attachment. C20 diacid = O=C(O)CCCCCCCCCCCCCCCCCCC(=O)*; γGlu = O=C(O)[C@H](CCC(=O)[*:2])N[*:1]; NMeI = CC[C@H](C)[C@H](NC)C(=O)O; Sar = CNCC(=O)O
# Tests used:
# Male Sprague Dawley rats [1] = test: Efficacy testing: food preference (FP) and development of obesity in rats fed on a high-fat diet (HFD); type: in vivo; conditions: rats self-selecting LFD/HFD, 30 nmol/kg sc, QW, 4 weeks
# Experimental: (§1) Whole-blood glucose levels were determined on tail-vein blood samples by the Biosen (EKF Diagnostic, Germany) enzyme-based electrode method. Blood samples were analyzed for glycated hemoglobin (HbA1c) using a Cobas c111 analyzer (Roche Diagnostics, Mannheim, Germany). Plasma insulin levels were measured using a Meso Scale Discovery (MSD) system (Rockville, MD, USA). Liver fat content was determined by magnetic resonance (MR) scanning using an Echo systems MR scanner. Fat depots were measured by weighing of excised fat.
# (§2) Male Sprague Dawley rats obtained from Taconic A/S, Denmark, were used in this study. The animals arrived at least 7 days before the study start to allow acclimatization to experimental conditions. From arrival and throughout the study, the rats were housed in groups of 2 (n = 2) in a light-, temperature- and humidity-controlled room (reversed 12/12 h light/dark cycle: lights turned off during day-time and on during night-time; temperature 20-22°C; relative humidity 50-80%) and maintained on a HFD (60% of total energy from fat, D12492, Research Diet Inc., New Brunswick, USA) for 2 weeks. Animals had access ad libitum to water (domestic quality tap water with citric acid added to pH ∼ 3.6) during the entire study. The rats were stratified according to body weight (primary) and % body weight gain from the beginning of feeding with HFD (secondary). Three days before the initiation of treatment the rats were allowed to self-select between a low-fat diet (LFD, standard chow, 11 % of total energy from fat, Atromin™ 1324, Brogaarden A/S, Gentofte, Denmark) and a high-fat diet, and they remained on the self-selected regimen for the duration of the study. Rats were treated for four weeks with Compound 18 [30 nmol/kg sc, once weekly (QW)] or vehicle.
# Statistical analyses were performed using GraphPad™ Prism version 5.
# The efficacy of Compound 18 in relation to change in food preference and in relation to the development of obesity were investigated by measurement of food preference, body weight, food intake, water intake, blood glucose levels, plasma insulin levels, mass of liver fat and mass of fat depots.
# Male Sprague Dawley rats [2] = test: Efficacy testing: development of obesity in rats fed on a high-fat diet (HFD); type: in vivo
# Experimental: as §1
# Male Sprague Dawley rats obtained from Taconic A/S, Denmark, were used in this study. The animals arrived at least 7 days before the study start to allow acclimatization to experimental conditions. From arrival and throughout the study, the rats were housed in groups of 2 (n = 2) in a light-, temperature- and humidity-controlled room (reversed 12/12 h light/dark cycle: lights turned off during day-time and on during night-time; temperature 20-22°C; relative humidity 50-80%) and maintained on a HFD (60% of total energy from fat, D12492, Research Diet Inc., New Brunswick, USA) for 2 weeks. Animals had access ad libitum to water (domestic quality tap water with citric acid added to pH ∼ 3.6) during the entire study.The rats were stratified according to body weight (primary) and % body weight gain from the beginning of feeding with HFD (secondary), and treated for 4 weeks with Compound 18 [1, 5 and 30 nmol/kg sc, once weekly (QW)] and Compound 18 (5 nmol/kg sc, every 4th day), and with comparison/reference compounds NN96 (a pramlintide analogue, see Example 5; 30 nmol/kg sc, QW) and the marketed human GLP-1 receptor agonist liraglutide [50 nmol/kg sc, twice daily (bid)], respectively.
# Post-hoc Dunnett's multiple comparison tests were conducted. When appropriate, the two-way ANOVA test was used followed by Bonferroni post tests; p < 0.05 was in all cases considered statistically significant.
# The preventive effects of Compound 18 of the present invention on the development of obesity were investigated by measurement of body weight, food intake, water intake, blood glucose levels, plasma insulin levels, liver fat mass and fat depots.
# [3] = test system: rats self-selecting between a low-fat diet and a high-fat diet; test: Food preference (FP) and development of obesity in rats fed on a high-fat diet (HFD); type: in vivo, Male Sprague Dawley rats; conditions: 30 nmol/kg sc, QW, 4 weeks
# Experimental: as §1, §2
# Statistical analyses were performed using GraphPad™ Prism version 5. […]
smiles,measurement,setting,value
"CC[C@H](C)[C@@H](C(=O)N[C@@H](CC(C)C)C(=O)N[C@@H](CO)C(=O)N[C@@H](CO)C(=O)N[C@H](C(=O)N[C@@H](CC(N)=O)C(=O)N[C@H](C(=O)NCC(=O)N[C@@H](CO)C(=O)N[C@@H](CC(N)=O)C(=O)N[C@H](C(=O)N1CCC[C@H]1C(N)=O)[C@@H](C)O)C(C)C)[C@@H](C)O)N(C)C(=O)[C@H](C)NC(=O)CN(C)C(=O)[C@H](Cc1ccccc1)NC(=O)[C@H](CC(N)=O)NC(=O)[C@H](CC(N)=O)NC(=O)[C@H](CO)NC(=O)[C@H](CO)NC(=O)[C@H](CCCNC(=N)N)NC(=O)[C@H](Cc1c[nH]cn1)NC(=O)[C@H](CC(C)C)NC(=O)[C@H](Cc1ccccc1)NC(=O)[C@H](CCC(=O)O)NC(=O)[C@H](C)NC(=O)[C@H](CC(C)C)NC(=O)[C@H](CCCNC(=N)N)NC(=O)[C@H](CCC(N)=O)NC(=O)[C@@H](NC(=O)[C@H](C)NC(=O)[C@@H]1CSSC[C@H](NC(=O)[C@H](CCCNC(=N)N)NC(=O)CC[C@H](NC(=O)CCCCCCCCCCCCCCCCCCC(=O)O)C(=O)O)C(=O)N[C@@H](CC(N)=O)C(=O)N[C@@H]([C@@H](C)O)C(=O)N[C@@H](C)C(=O)N[C@@H]([C@@H](C)O)C(=O)N1)[C@@H](C)O [Compound 18, [19CD]-isoGlu-RC()NTATC()ATQRLAEFLHRSSNNF-Gly(Me)-A-Ile(Me)-LSSTNVGSNTP-NH2] ({C20 diacid-γGlu}-RCNTATCATQRLAEFLHRSSNNF[Sar]A[NMeI]LSSTNVGSNTP-NH2; disulfide 2-7)",body weight gain,Male Sprague Dawley rats [1],reduction
same,caloric intake deriving from LFD,Male Sprague Dawley rats [1],significant increase
same,terminal blood glucose levels,Male Sprague Dawley rats [1],unaffected
same,total caloric intake combined from both diets,Male Sprague Dawley rats [1],decrease
same,mass of fat depots,Male Sprague Dawley rats [2]; 4 weeks treatment,decrease
same,food intake,"Male Sprague Dawley rats [2]; 4 weeks treatment, vs. vehicle",significantly decreased
same,terminal liver fat mass,"Male Sprague Dawley rats [2]; 5 and 30 nmol/kg, QW, 4 weeks",decrease
same,reduction in body weight gain at the end of the study,"Male Sprague Dawley rats [2]; high-dose group (30 nmol/kg sc, QW), 4 weeks",26%
same,caloric intake deriving from LFD,[3],significant increase in caloric intake deriving from LFD
same,body weight gain,[3]; rats self-selecting LFD/HFD,reduction of body weight gain
same,total caloric intake combined from both diets,[3]; rats self-selecting LFD/HFD,a decrease in the total caloric intake
